Experimental data reported in patent US4025506A, “Broad spectrum antibiotics” (Pfizer Inc., priority 1975, dated 1977).
Converted amounts (≈) assume the structure as drawn. Read-outs that look alike come from different tables or passages of the source.

Assays:
E. coli 51A266 [1] = assay: In vivo protection against experimental E. coli infection in mice (Table II); conditions: doses 0.5, 4 and 24 hours after inoculation
Method: Table II presents the in vivo comparison data for the three compounds contained in Table I against several experimental infections in mice.
The values (% survivors) are obtained under standard conditions known to those skilled in the art. For the E. coli organism, the test compound is administered to the infected mice by a multiple dosing regimen in which the first dose is given 0.5 hour after inoculation and is repeated 4 and 24 hours later.

P. mirabilis 57C0015 = assay: In vitro antibacterial MIC, P. mirabilis 57C0015; type: cell-based; conditions: Proteus mirabilis
From the text: (§1) The in vitro activity of the herein described compounds renders them useful for topical application in the form of ointments, creams and the like, or for sterilization purposes, e.g., sick-room utensils.
(§2) Table I compares the in vitro profile of 6-[D-2-phenyl-2-(amidinopropionamido)acetamido]penicillanic acid (PAP) with ampicillin (AMP) and carbenicillin (CAR).

Kleb. penumoniae 53A015 = assay: In vitro antibacterial MIC, Kleb. penumoniae 53A015; type: cell-based; conditions: nutrient broth, Table I
From the text: as §1, §2

A. aerogenes 55A002 = assay: In vitro antibacterial MIC, A. aerogenes 55A002; type: cell-based; conditions: Klebsiella aerogenes, nutrient broth, Table I
From the text: as §1, §2

E. coli 51A002 = assay: In vitro antibacterial MIC, E. coli 51A002; type: cell-based; conditions: Escherichia coli, nutrient broth, Table I
From the text: as §1, §2

Ps. aeruginosa 52A490 = assay: In vitro antibacterial MIC, Ps. aeruginosa 52A490; type: cell-based; conditions: Pseudomonas aeruginosa
From the text: as §1, §2

A. aerogenes = assay: In vitro antibacterial MIC, A. aerogenes; type: cell-based; conditions: Klebsiella aerogenes
From the text: as §1, §2

S. aureus 01A005 = assay: In vitro antibacterial MIC, S. aureus 01A005; type: cell-based; conditions: Staphylococcus aureus
From the text: as §1, §2

Ser. marcescens 63A001 = assay: In vitro antibacterial MIC, Ser. marcescens 63A001; type: cell-based; conditions: Serratia marcescens
From the text: as §1, §2

P. mirabiis 57C015 = assay: In vitro antibacterial MIC, P. mirabiis 57C015; type: cell-based
From the text: as §1, §2

Ps. aeruginosa 52A104 = assay: In vitro antibacterial MIC, Ps. aeruginosa 52A104; type: cell-based; conditions: Pseudomonas aeruginosa
From the text: as §1, §2

Kleb. pneumoniae 53A009 = assay: In vitro antibacterial MIC, Kleb. pneumoniae 53A009; type: cell-based; conditions: Klebsiella pneumoniae
From the text: as §1, §2

E. coli 51A266 [2] = assay: In vivo protection against E. coli infection in mice (Table IV); conditions: doses 0.5, 4 and 24 hours after inoculation
Method: Table IV presents in vivo comparison data for the four compounds in Table III against E. coli infections in mice.
The values, reported as % survivors, are obtained under standard conditions familiar to those skilled in the art. The test compound is administered to the infected mice by a multiple dosing regimen in which the first dose is given 0.5 hour after inoculation and is repeated 4 and 24 hours later.

E. coli 51A266 [3] = assay: In vitro antibacterial MIC, E. coli 51A266; type: cell-based; conditions: Escherichia coli
From the text: as §1, §2

gram-negative bacteria = conditions: cited from earlier work
[4] = P. mirabilis 57C0015, nutrient broth, Table I, read-out: MIC

| Compound | % Protection (% survivors) (E. coli 51A266 [1]; PO, 50 mg./kg.) [%] | % Protection (% survivors) (E. coli 51A266 [1]; PO, 200 mg./kg.) [%] | % Protection (% survivors) (E. coli 51A266 [1]; SC, 50 mg./kg.) [%] | % Protection (% survivors) (E. coli 51A266 [1]; SC, 200 mg./kg.) [%] | MIC (Ps. aeruginosa 52A490) [µg/mL] | MIC (A. aerogenes) [µg/mL] | MIC (S. aureus 01A005) [µg/mL] | MIC (Ser. marcescens 63A001) [µg/mL] | MIC (P. mirabiis 57C015) [µg/mL] | MIC (Ps. aeruginosa 52A104) [µg/mL] | MIC (Kleb. pneumoniae 53A009) [µg/mL] | % Survivors (E. coli 51A266 [2]; PO, 25 mg./kg.) [%] | % Survivors (E. coli 51A266 [2]; PO, 50 mg./kg.) [%] | % Survivors (E. coli 51A266 [2]; PO, 200 mg./kg.) [%] | % Survivors (E. coli 51A266 [2]; SC, 25 mg./kg.) [%] | % Survivors (E. coli 51A266 [2]; SC, 50 mg./kg.) [%] | % Survivors (E. coli 51A266 [2]; SC, 200 mg./kg.) [%] | MIC (E. coli 51A266 [3]) [µg/mL] | other results |
| --- | --- | --- | --- | --- | --- | --- | --- | --- | --- | --- | --- | --- | --- | --- | --- | --- | --- | --- | --- |
| CC1(C)S[C@@H]2[C@H](NC(=O)[C@H](N)c3ccccc3)C(=O)N2[C@H]1C(=O)O [AMP, ampicillin] | 80 | 90 | 80 | 90 |  |  |  |  |  |  |  |  |  |  |  |  |  |  | MIC (P. mirabilis 57C0015; 57C0015): 1.56 µg/mL (≈ 4.46 µM) |
| CC1(C)S[C@@H]2[C@H](NC(=O)C(C(=O)O)c3ccccc3)C(=O)N2[C@H]1C(=O)O (some centres unmarked) [CAR, carbenicillin] | 10 | 70 | 90 | 90 |  |  |  |  |  |  |  |  |  |  |  |  |  |  | MIC (P. mirabilis 57C0015; [4]): 1.25 µg/mL (≈ 3.3 µM); MIC (Kleb. penumoniae 53A015): > 200 µg/mL |
| CC1(C)S[C@@H]2[C@H](NC(=O)[C@H](NC(=O)CCC(=N)N)c3ccccc3)C(=O)N2[C@H]1C(=O)O [PAP, 6-[D-2-phenyl-2-(amidinopropionamido)acetamido]penicillanic acid] | 20 | 30 | 80 | 80 |  |  |  |  |  |  |  |  |  |  |  |  |  |  | MIC (A. aerogenes 55A002): 100 µg/mL (≈ 223 µM); MIC (E. coli 51A002): 200 µg/mL (≈ 447 µM); MIC (P. mirabilis 57C0015; [4]): 6.25 µg/mL (≈ 14 µM); MIC (Kleb. penumoniae 53A015): > 200 µg/mL |
| CC1(C)S[C@@H]2[C@H](NC(=O)C(NC(=O)CNC(=N)c3ccc(Br)cc3)c3ccccc3)C(=O)N2[C@H]1C(=O)O (some centres unmarked) [X = Br] |  |  |  |  | 6.25 (≈ 10.6 µM) | 3.12 (≈ 5.3 µM) | 0.39 (≈ 0.663 µM) | 6.25 (≈ 10.6 µM) | 3.12 (≈ 5.3 µM) | 25 (≈ 42.5 µM) | 12.5 (≈ 21.2 µM) | 10 | 0 | 0 | 50 | 60 | 90 | 0.39 (≈ 0.663 µM) |  |
| CC1(C)S[C@@H]2[C@H](NC(=O)C(NC(=O)CNC(=N)c3ccc(Cl)cc3)c3ccccc3)C(=O)N2[C@H]1C(=O)O (some centres unmarked) [X = Cl] |  |  |  |  | 12.5 (≈ 23 µM) | 3.12 (≈ 5.73 µM) | 0.39 (≈ 0.717 µM) | 6.25 (≈ 11.5 µM) | 3.12 (≈ 5.73 µM) | 25 (≈ 46 µM) | 12.5 (≈ 23 µM) | 0 | 0 | 0 | 50 | 60 | 70 | 0.78 (≈ 1.43 µM) |  |
| CC1(C)S[C@@H]2[C@H](NC(=O)C(NC(=O)CNC(=N)c3ccc(F)cc3)c3ccccc3)C(=O)N2[C@H]1C(=O)O (some centres unmarked) [X = F] |  |  |  |  | 3.12 (≈ 5.91 µM) | 25 (≈ 47.4 µM) | 0.39 (≈ 0.739 µM) | 6.25 (≈ 11.8 µM) | 3.12 (≈ 5.91 µM) | 12.5 (≈ 23.7 µM) | 25 (≈ 47.4 µM) | 10 | 0 | 10 | 50 | 70 | 90 | 1.56 (≈ 2.96 µM) |  |
| CC1(C)S[C@@H]2[C@H](NC(=O)C(NC(=O)CNC(=N)c3ccccc3)c3ccccc3)C(=O)N2[C@H]1C(=O)O (some centres unmarked) [X = H] |  |  |  |  | 12.5 (≈ 24.5 µM) | 25 (≈ 49.1 µM) | 0.78 (≈ 1.53 µM) | 12.5 (≈ 24.5 µM) | 12.5 (≈ 24.5 µM) | 25 (≈ 49.1 µM) | 100 (≈ 196 µM) | 0 | 0 | 10 | 10 | 70 | 90 | 12.5 (≈ 24.5 µM) |  |
| CC1(C)S[C@@H]2[C@H](NC(=O)C(C(=O)O)c3ccccc3)C(=O)N2[C@H]1C(=O)O (stereo partly drawn) [α-Carboxybenzylpenicillin] |  |  |  |  |  |  |  |  |  |  |  |  |  |  |  |  |  |  | utility via oral administration (in words) (gram-negative bacteria; oral): limited utility via oral administration; efficacy against gram-negative bacteria (in words) (gram-negative bacteria; parenteral route): greater efficacy against gram-negative bacteria |
